# From patent US20230027361A1, “METTL3 MODULATORS” (priority 2019, published 2023)
# pIC50: −log10 of the molar value.
# Target: PRMT5-MEP50 (Homo sapiens, UniProt O14744)
# Test: PRMT5 Assay (PRMT5 biochemical assay)
# Details: not given
# Experimental: Assays were performed in a 25 μl-volume in 384-well V-bottom polypropylene microplates (Greiner Bio-One, cat. No. 781280) at ambient temperature. Optimized 1× assay buffer was 20 mM Tris-HCl pH 8.0, 1 mM DTT, […]. For compound screening PRMT5-MEP50 (final concentration, f.c.=2.5 nM) was added using a Multidrop Combi (ThermoFisher Scientific, Waltham, Mass.) and preincubated for 5 min. Reactions were started by adding 3′ biotinylated histone H4 peptide acetylated on serine 1 (Ac-[…]-Biotin) (f.c.=100 nM) and 3H-SAM (f.c.=250 nM) substrates. Reactions proceeded for 60 minutes and were quenched with excess non-radioactive SAM (f.c.=15 μM). The reactions were then transferred to streptavidin-coated flashplates and incubated for 2 hours at 25° C. Following two washing cycles with 0.1% Tween-20, the plates were sealed and read on a TopCount (PerkinElmer, Waltham, Mass.) plate-based scintillation counter. For determination of kinetic parameters, reaction times were optimized so that measurements were taken during the initial velocity phase of the reaction.
# Sequence of PRMT5-MEP50 (O14744 whole entry): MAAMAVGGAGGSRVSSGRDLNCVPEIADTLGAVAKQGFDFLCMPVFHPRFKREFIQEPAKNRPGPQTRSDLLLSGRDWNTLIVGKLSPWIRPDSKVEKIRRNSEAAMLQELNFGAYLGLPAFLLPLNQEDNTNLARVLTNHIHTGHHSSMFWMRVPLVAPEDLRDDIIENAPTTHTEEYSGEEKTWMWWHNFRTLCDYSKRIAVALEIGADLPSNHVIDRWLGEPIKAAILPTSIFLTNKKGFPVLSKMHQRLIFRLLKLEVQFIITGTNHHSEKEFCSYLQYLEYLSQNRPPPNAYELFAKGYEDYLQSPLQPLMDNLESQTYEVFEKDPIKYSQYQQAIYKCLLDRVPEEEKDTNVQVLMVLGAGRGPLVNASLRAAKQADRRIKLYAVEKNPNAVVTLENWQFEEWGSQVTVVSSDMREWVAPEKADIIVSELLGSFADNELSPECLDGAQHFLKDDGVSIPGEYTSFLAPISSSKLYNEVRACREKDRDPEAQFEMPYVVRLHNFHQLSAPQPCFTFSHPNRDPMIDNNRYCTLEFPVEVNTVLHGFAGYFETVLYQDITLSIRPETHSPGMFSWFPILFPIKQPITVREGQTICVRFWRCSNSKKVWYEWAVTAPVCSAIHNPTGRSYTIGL
# Sequence of PRMT5-MEP50 (Q9BQA1 whole entry partner): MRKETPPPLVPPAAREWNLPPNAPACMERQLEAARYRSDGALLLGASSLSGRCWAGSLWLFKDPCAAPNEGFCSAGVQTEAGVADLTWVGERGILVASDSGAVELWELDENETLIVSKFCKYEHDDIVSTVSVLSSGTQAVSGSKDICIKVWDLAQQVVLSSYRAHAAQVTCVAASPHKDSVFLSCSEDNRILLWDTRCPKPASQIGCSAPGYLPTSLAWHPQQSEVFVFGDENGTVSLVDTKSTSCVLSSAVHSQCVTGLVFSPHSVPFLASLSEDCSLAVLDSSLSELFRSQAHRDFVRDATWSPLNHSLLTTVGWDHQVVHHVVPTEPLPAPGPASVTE
row,SMILES,pIC50
1,CNc1nc2cc(OC[C@H]3O[C@@H](n4cc(-n5ccc(C)n5)c5c(N)ncnc54)C[C@@H]3O)ccc2cc1F [I-207],< 6.00
2,CNc1nc2cc(OC[C@H]3O[C@@H](n4cc(-c5ccn(C)n5)c5c(N)ncnc54)[C@@H](F)[C@@H]3O)ccc2[nH]1 [I-208],6.00 to 7.00
3,Nc1ncnc2c1c(-n1cccn1)cn2[C@@H]1C[C@H](CCc2cc3nc(N4CCC4)ccc3cc2F)[C@@H](O)C1 [I-210],< 6.00
4,Nc1ncnc2c1c(-c1cnccn1)cn2[C@@H]1O[C@H](COc2ccc3ccc(N4CCC4)nc3c2)[C@@H](O)[C@@H]1F [I-215],< 6.00
5,CN(C)C(=O)c1cn([C@@H]2O[C@H](COc3ccc4ccc(N5CCC5)nc4c3)[C@@H](O)[C@@H]2F)c2ncnc(N)c12 [I-216],6.00 to 7.00
6,Nc1ncnc2c1c(-n1cccn1)cn2C1CC(CCc2ccc3ccc(NC4CCC4)nc3c2)C(O)C1F (stereo not drawn) [I-235],7.00 to 8.00

# Same assay, conditions: PRMT5 biochemical assay; read-out: PRMT5 IC50
row,SMILES,pIC50
1,Nc1cc(OC[C@H]2O[C@@H](n3ccc4c(N)ncnc43)[C@@H](F)[C@@H]2O)ccc1C(=O)N1CCNCC1 [I-175],< 6.00
2,Nc1ncnc2c1c([C@@H]1CCCO1)cn2[C@@H]1O[C@H](COc2ccc3ccc(N4CCC4)nc3c2)[C@@H](O)[C@@H]1F [I-224],6.00 to 7.00

# Other lines, results leading:
row,pIC50,SMILES
1,7.00 to 8.00,Nc1ncnc2c1ccn2[C@H]1C[C@H](O)[C@@H](COc2ccc3ccc(N4CC(N)C4)nc3c2)O1 [I-184]
2,< 6.00,Nc1ncnc2c1ccn2[C@@H]1O[C@H](COc2ccc3ccc(NC4CCC4)nc3c2)[C@@H](O)[C@@H]1F [I-185]
3,< 6.00,Nc1ncnc2c1ccn2[C@@H]1O[C@H](COc2ccc3ccc(N4CC(N)C4)nc3c2)[C@@H](O)[C@@H]1F [I-188]
4,< 6.00,Nc1ncnc2c1ccn2[C@@H]1O[C@H](CCC2CCNCC2)[C@@H](O)[C@@H]1F [I-192]
5,7.00 to 8.00,CNc1ccc2sc(CC[C@H]3O[C@@H](n4ccc5c(N)ncnc54)[C@@H](F)[C@@H]3O)cc2n1 [I-193]
6,< 6.00,Nc1ncnc2c1ccn2[C@H]1C[C@H](O)[C@@H](CCc2ccc3ccc(N4CCC4)nc3c2)O1 [I-198]
7,6.00 to 7.00,Nc1ncnc2c1ccn2[C@@H]1O[C@H](COc2ccc3ccc(N[C@H]4C[C@@H](N)C4)nc3c2)[C@@H](O)[C@@H]1F [I-204]
8,< 6.00,CC1(C)COC(c2cn([C@@H]3O[C@H](COc4ccc5ccc(N6CCC6)nc5c4)[C@@H](O)[C@@H]3F)c3ncnc(N)c23)=N1 [I-213]
9,< 6.00,CN(C)Cc1cn([C@@H]2O[C@H](COc3ccc4ccc(N5CCC5)nc4c3)[C@@H](O)[C@@H]2F)c2ncnc(N)c12 [I-214]

# Target: METTL3/METTL14 (Homo sapiens, UniProt Q86U44)
# Sequence (Q86U44 whole entry, species assumed): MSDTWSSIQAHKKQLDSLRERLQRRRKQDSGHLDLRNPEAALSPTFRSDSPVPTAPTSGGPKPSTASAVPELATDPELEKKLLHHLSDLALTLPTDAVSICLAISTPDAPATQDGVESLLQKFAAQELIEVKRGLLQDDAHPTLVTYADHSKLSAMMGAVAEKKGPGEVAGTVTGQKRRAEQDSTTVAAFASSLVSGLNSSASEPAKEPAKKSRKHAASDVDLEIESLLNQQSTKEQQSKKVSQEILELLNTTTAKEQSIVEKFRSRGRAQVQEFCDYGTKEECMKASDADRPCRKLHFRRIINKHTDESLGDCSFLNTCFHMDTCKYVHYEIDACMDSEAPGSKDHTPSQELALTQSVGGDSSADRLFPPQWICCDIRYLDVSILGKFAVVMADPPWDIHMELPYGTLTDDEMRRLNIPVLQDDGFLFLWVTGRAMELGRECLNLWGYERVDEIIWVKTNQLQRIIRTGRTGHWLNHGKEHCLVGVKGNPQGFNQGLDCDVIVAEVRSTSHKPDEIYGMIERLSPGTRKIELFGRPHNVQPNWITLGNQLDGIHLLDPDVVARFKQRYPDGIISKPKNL
# Sequence (Q9HCE5 whole entry partner, species assumed): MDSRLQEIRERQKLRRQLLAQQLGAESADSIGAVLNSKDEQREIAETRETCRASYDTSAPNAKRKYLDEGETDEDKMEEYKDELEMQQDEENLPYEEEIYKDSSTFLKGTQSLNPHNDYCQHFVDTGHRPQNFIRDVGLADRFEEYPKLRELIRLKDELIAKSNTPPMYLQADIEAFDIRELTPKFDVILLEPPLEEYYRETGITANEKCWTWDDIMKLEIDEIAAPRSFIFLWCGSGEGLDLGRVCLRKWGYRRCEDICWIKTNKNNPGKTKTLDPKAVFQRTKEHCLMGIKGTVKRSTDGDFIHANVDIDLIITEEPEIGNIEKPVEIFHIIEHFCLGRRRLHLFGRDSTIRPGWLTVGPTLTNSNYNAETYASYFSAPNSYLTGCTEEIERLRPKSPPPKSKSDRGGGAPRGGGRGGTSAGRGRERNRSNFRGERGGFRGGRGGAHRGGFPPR
# Test: METTL3-14 Standard Enzyme Assay (METTL3 biochemical assay)
# Details: not given
# Experimental: Assays were performed in a 25 μl-volume in 384-well V-bottom polypropylene microplates (Greiner Bio-One, cat. No. 781280) at ambient temperature. Optimized 1× assay buffer was 20 mM HEPES pH 7.5, 50 mM KCl, 250 μM MgCl2, 1 mM DTT, 0.01% Tween, 0.01% BSG, 0.004 U/μl RNAseOUT (cat. No. 10777019, ThermoFisher Scientific, Waltham, Mass.). For compound screening METTL3/METTL14 (final concentration, f.c.=2.5 nM) was added using a Multidrop Combi (ThermoFisher Scientific, Waltham, Mass.) and preincubated for 5 min. Reactions were started by adding 3′ biotinylated RNA ([…]-biotin) (f.c.=100 nM) and 3H-SAM (f.c.=100 nM) substrates. Reactions proceeded for 30 minutes and were quenched with excess non-radioactive SAM (f.c.=15 μM). The reactions were then transferred to streptavidin-coated flashplates and incubated for 2 hours at 25° C. Following two washing cycles with 0.1% Tween-20, the plates were sealed and read on a TopCount (PerkinElmer, Waltham, Mass.) plate-based scintillation counter. For determination of kinetic parameters, reaction times were optimized so that measurements were taken during the initial velocity phase of the reaction.
row,SMILES,pIC50
1,CNc1nc2cc(OC[C@H]3O[C@@H](n4cc(-n5ccc(C)n5)c5c(N)ncnc54)C[C@@H]3O)ccc2cc1F [I-207],< 6.00
2,CNc1nc2cc(OC[C@H]3O[C@@H](n4cc(-c5ccn(C)n5)c5c(N)ncnc54)[C@@H](F)[C@@H]3O)ccc2[nH]1 [I-208],> 8.00
3,CCNc1ccc2ccc(CC[C@H]3C[C@@H](n4cc(-n5cccn5)c5c(N)ncnc54)C[C@@H]3O)cc2n1 [I-209],> 8.00
4,Nc1ncnc2c1c(-n1cccn1)cn2[C@@H]1C[C@H](CCc2cc3nc(N4CCC4)ccc3cc2F)[C@@H](O)C1 [I-210],> 8.00
5,Nc1ncnc2c1c(-c1cnccn1)cn2[C@@H]1O[C@H](COc2ccc3ccc(N4CCC4)nc3c2)[C@@H](O)[C@@H]1F [I-215],> 8.00
6,CN(C)C(=O)c1cn([C@@H]2O[C@H](COc3ccc4ccc(N5CCC5)nc4c3)[C@@H](O)[C@@H]2F)c2ncnc(N)c12 [I-216],7.00 to 8.00
7,Nc1ncnc2c1c(-n1cccn1)cn2C1CC(CCc2ccc3ccc(NC4CCC4)nc3c2)C(O)C1F (stereo not drawn) [I-235],6.00 to 7.00

# Same assay, conditions: METTL3 biochemical assay; read-out: METTL3 IC50
row,SMILES,pIC50
1,CCc1cc(N(C)C2CC2)c2ccc(OC[C@H]3O[C@@H](n4ccc5c(N)ncnc54)C[C@@H]3O)cc2n1 [I-161],7.00 to 8.00
2,Nc1cc(OC[C@H]2O[C@@H](n3ccc4c(N)ncnc43)[C@@H](F)[C@@H]2O)ccc1C(=O)N1CCNCC1 [I-175],< 6.00
3,Nc1ncnc2c1c([C@@H]1CCCO1)cn2[C@@H]1O[C@H](COc2ccc3ccc(N4CCC4)nc3c2)[C@@H](O)[C@@H]1F [I-224],> 8.00

# Further lines, results first:
row,pIC50,SMILES
1,6.00 to 7.00,Nc1ncnc2c1ccn2[C@H]1C[C@H](O)[C@@H](COc2ccc3ccc(N4CC(N)C4)nc3c2)O1 [I-184]
2,> 8.00,Nc1ncnc2c1ccn2[C@@H]1O[C@H](COc2ccc3ccc(NC4CCC4)nc3c2)[C@@H](O)[C@@H]1F [I-185]
3,7.00 to 8.00,Nc1ncnc2c1ccn2[C@@H]1O[C@H](COc2ccc3ccc(N4CC(N)C4)nc3c2)[C@@H](O)[C@@H]1F [I-188]
4,6.00 to 7.00,Nc1ncnc2c1ccn2[C@@H]1O[C@H](CCC2CCNCC2)[C@@H](O)[C@@H]1F [I-192]
5,7.00 to 8.00,CNc1ccc2sc(CC[C@H]3O[C@@H](n4ccc5c(N)ncnc54)[C@@H](F)[C@@H]3O)cc2n1 [I-193]
6,7.00 to 8.00,Nc1ncnc2c1ccn2[C@H]1C[C@H](O)[C@@H](CCc2ccc3ccc(N4CCC4)nc3c2)O1 [I-198]
7,6.00 to 7.00,Nc1ncnc2c1ccn2[C@@H]1O[C@H](COc2ccc3ccc(N[C@H]4C[C@@H](N)C4)nc3c2)[C@@H](O)[C@@H]1F [I-204]
8,> 8.00,CC1(C)COC(c2cn([C@@H]3O[C@H](COc4ccc5ccc(N6CCC6)nc5c4)[C@@H](O)[C@@H]3F)c3ncnc(N)c23)=N1 [I-213]
9,> 8.00,CN(C)Cc1cn([C@@H]2O[C@H](COc3ccc4ccc(N5CCC5)nc4c3)[C@@H](O)[C@@H]2F)c2ncnc(N)c12 [I-214]
